Data taken from US12172983B2, “EGFR inhibitors” (Blueprint Medicines Corporation, priority 2019, dated 2024).
pIC50: −log10 of the molar value. Read-outs that look alike come from different tables or passages of the source.

Columns and labels:
[1] = target: T1, EGFR (L858R T790M C797S) (Homo sapiens, UniProt P00533, C797S/L858R/T790M); experiment: Biochemical EGFR inhibition assay (Caliper mobility shift), EGFR LRTMCS mutant; conditions: inhibitory activity against EGFR LRTMCS mutant; apparent IC50; read-out: Ext Enz LRTMCS
T1 construct: purchased SignalChem E10-122VG
T1 sequence (P00533 25-1210 T790M/C797S/L858R): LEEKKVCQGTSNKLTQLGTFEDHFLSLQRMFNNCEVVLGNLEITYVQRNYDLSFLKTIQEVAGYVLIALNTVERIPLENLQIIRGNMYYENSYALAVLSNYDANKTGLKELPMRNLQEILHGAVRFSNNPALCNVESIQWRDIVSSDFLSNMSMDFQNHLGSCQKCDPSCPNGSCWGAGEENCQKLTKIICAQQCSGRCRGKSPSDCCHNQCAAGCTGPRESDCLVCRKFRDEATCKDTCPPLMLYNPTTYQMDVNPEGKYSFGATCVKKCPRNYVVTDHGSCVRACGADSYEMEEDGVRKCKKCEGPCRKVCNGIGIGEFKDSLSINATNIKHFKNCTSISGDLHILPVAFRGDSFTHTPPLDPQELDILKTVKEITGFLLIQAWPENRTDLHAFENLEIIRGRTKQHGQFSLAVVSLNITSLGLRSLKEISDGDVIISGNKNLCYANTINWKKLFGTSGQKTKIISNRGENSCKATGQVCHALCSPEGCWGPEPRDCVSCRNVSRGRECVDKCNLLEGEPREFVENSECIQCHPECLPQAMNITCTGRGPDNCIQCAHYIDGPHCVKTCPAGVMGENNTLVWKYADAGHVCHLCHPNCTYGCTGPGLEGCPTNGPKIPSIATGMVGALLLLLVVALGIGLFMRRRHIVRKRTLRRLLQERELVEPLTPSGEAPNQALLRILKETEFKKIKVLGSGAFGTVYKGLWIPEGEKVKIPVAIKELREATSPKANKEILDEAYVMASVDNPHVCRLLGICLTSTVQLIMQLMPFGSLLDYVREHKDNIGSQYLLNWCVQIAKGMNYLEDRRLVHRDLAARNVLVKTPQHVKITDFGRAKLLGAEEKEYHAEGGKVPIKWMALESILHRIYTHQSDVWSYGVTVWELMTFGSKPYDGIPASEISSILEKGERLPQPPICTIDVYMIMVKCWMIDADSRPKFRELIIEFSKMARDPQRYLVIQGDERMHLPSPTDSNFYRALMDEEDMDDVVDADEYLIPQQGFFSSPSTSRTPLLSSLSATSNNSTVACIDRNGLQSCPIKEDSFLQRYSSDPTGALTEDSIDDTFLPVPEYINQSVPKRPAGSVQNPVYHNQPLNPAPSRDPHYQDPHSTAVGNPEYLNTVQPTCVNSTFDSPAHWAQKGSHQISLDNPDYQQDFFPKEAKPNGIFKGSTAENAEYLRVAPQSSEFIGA
Procedure, shortened: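 Apparent IC50s were derived by plotting percent activity against the log of compound concentration. Activity was measured as phosphopeptide electrophoretically separated from substrate, after reactions at room temperature reached 10% to 20% phosphorylation and were halted with 35 mM EDTA.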

[2] = test system: phosphorylation of EGFR (Tyr1068) in NCI-H1975 cell line that harbors the EGFR L858R T790M mutations; experiment: NCI-H1975 pEGFR AlphaLISA assay; assay type: cell-based; conditions: 4-5 hours incubation, read-out: Ext pEGFR H1975
Procedure, shortened: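 NCI-H1975 cells (EGFR L858R/T790M) seeded overnight, then treated with compound for 4-5 h at 37 °C/5% CO2. After lysis, p-EGFR (Tyr1068) quantified by AlphaLISA SureFire Ultra with acceptor then donor beads; IC50 fitted from percent inhibition versus log concentration.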

[3] = Homo sapiens, NCI-H1975, inhibition of phosphorylation of mutant EGFR in NCI-H1975 cells
[4] = inhibition of phosphorylation of mutant EGFR in NCI-H1975 cells

| SMILES | pIC50 [1] | pIC50 [2, 3] | pIC50 [2, 4] |
| --- | --- | --- | --- |
| COC1CCN(c2nccc(Nc3cc4c(C(C)C)cnc(N5CC(CS(C)(=O)=O)C5)c4cn3)n2)CC1 [Compound 22, 8-[3-(methanesulfonylmethyl)azetidin-1-yl]-N-[2-(4-methoxypiperidin-1-yl)pyrimidin-4-yl]-5-(propan-2-yl)-2,7-naphthyridin-3-amine] | ≥ 7.82 | ≥ 8.00 | – |
| CC(C)c1ccc(N2C[C@H](CS(C)(=O)=O)[C@H]2C)c2cnc(Nc3ccnc(N4CC[C@H](O)C[C@@H]4C)n3)cc12 (single isomer, unassigned) [Compound 48, (2R,4R)-1-[4-({8-[(2R,3S)-3-(methanesulfonylmethyl)-2-methylazetidin-1-yl]-5-(propan-2-yl)isoquinolin-3-yl}amino)pyrimidin-2-yl]-2-methylpiperidin-4-ol or (2S,4S)-1-[4-({8-[(2R,3S)-3-(methanesulfonylmethyl)-2-methylazetidin-1-yl]-5-(propan-2-yl)isoquinolin-3-yl}amino)pyrimidin-2-yl]-2-methylpiperidin-4-ol] | ≥ 7.82 | – | ≥ 8.00 |
| [2H]C([2H])([2H])O[C@H]1CCN(c2nccc(Nc3cc4c(C(C)C)ccc(N5CC(CS(C)(=O)=O)C5)c4cn3)n2)C[C@H]1F (single isomer, unassigned) [Compound 81] | ≥ 7.82 | ≥ 8.00 | – |
| CC(C)c1ccc(N2C[C@H](CS(C)(=O)=O)[C@H]2C)c2cnc(Nc3ccnc(N4CCC(OCCN)CC4)n3)cc12 [Compound 168, N-{2-[4-(2-aminoethoxy)piperidin-1-yl]pyrimidin-4-yl}-8-[(2R,3S)-3-(methanesulfonylmethyl)-2-methylazetidin-1-yl]-5-(propan-2-yl)isoquinolin-3-amine] | ≥ 7.82 | 7.70 to 8.00 | – |
| CC(C)c1cnc(N2CC(CS(C)(=O)=O)C2)c2cnc(Nc3ccnc(N4C[C@H](F)[C@@H](F)C4)n3)cc12 (single isomer, unassigned) [Compound 8, N-{2-[(3S,4S)-3,4-difluoropyrrolidin-1-yl]pyrimidin-4-yl}-8-[3-(methanesulfonylmethyl)azetidin-1-yl]-5-(propan-2-yl)-2,7-naphthyridin-3-amine or N-{2-[(3R,4R)-3,4-difluoropyrrolidin-1-yl]pyrimidin-4-yl}-8-[3-(methanesulfonylmethyl)azetidin-1-yl]-5-(propan-2-yl)-2,7-naphthyridin-3-amine] | ≥ 7.82 | – | 7.30 to 7.52 |
| CC(C)c1ccc(N2C[C@H](CS(C)(=O)=O)[C@H]2C)c2cnc(Nc3ccnc(N4CCC(C)(O)CC4)n3)cc12 (single isomer, unassigned) [Compound 46] | ≥ 7.82 | ≥ 8.00 | – |
| CC(C)c1ccc(N2CC(CS(C)(=O)=O)C2)c2cnc(Nc3ccnc(N4C[C@@H](F)[C@@H](O)[C@@](C)(F)C4)n3)cc12 (single isomer, unassigned) [Compound 155, (3S,4R,5R)-3,5-difluoro-1-[4-({8-[3-(methanesulfonylmethyl)azetidin-1-yl]-5-(propan-2-yl)isoquinolin-3-yl}amino)pyrimidin-2-yl]-3-methylpiperidin-4-ol or (3R,4S,5S)-3,5-difluoro-1-[4-({8-[3-(methanesulfonylmethyl)azetidin-1-yl]-5-(propan-2-yl)isoquinolin-3-yl}amino)pyrimidin-2-yl]-3-methylpiperidin-4-ol] | ≥ 7.82 | ≥ 8.00 | – |
| CO[C@H]1CCN(c2nccc(Nc3cc4c(C(C)C)cnc(N5C[C@H](CS(C)(=O)=O)[C@H]5C)c4cn3)n2)C[C@@H]1O (single isomer, unassigned) [Compound 106, (3S,4S)-1-[4-({8-[(2R,3S)-3-(methanesulfonylmethyl)-2-methylazetidin-1-yl]-5-(propan-2-yl)-2,7-naphthyridin-3-yl}amino)pyrimidin-2-yl]-4-methoxypiperidin-3-ol or (3R,4R)-1-[4-({8-[(2R,3S)-3-(methanesulfonylmethyl)-2-methylazetidin-1-yl]-5-(propan-2-yl)-2,7-naphthyridin-3-yl}amino)pyrimidin-2-yl]-4-methoxypiperidin-3-ol] | ≥ 7.82 | ≥ 8.00 | – |
| CO[C@H]1CCN(c2nccc(Nc3cc4c(C(C)C)ccc(N5CC(CS(C)(=O)=O)C5)c4cn3)n2)CC1(F)F (single isomer, unassigned) [Compound 158] | 7.70 to 7.82 | 7.70 to 8.00 | – |

Other lines, results leading:

| pIC50 [1] | pIC50 [2, 3] | pIC50 [2, 4] | SMILES |
| --- | --- | --- | --- |
| ≥ 7.82 | ≥ 8.00 | – | CC(C)c1ncc(N2C[C@H](CS(C)(=O)=O)[C@H]2C)c2cnc(Nc3ccnc(N4CC[C@@H](OCC(C)(C)O)[C@@H](F)C4)n3)cc12 [Compound 258, 1-{[(3S,4R)-3-fluoro-1-[4-({8-[(2R,3S)-3-(methanesulfonylmethyl)-2-methylazetidin-1-yl]-5-(propan-2-yl)-2,6-naphthyridin-3-yl}amino)pyrimidin-2-yl]piperidin-4-yl]oxy}-2-methylpropan-2-ol] |
| 7.52 to 7.70 | ≥ 8.00 | – | CO[C@@H]1[C@H](F)CN(c2nccc(Nc3cc4c(C(C)C)ccc(N5CC(CS(C)(=O)=O)C5)c4cn3)n2)C[C@@H]1OC (stereo in doubt) [Compound 201] |
| 7.52 to 7.70 | ≥ 8.00 | – | CO[C@@H]1CCN(c2nccc(Nc3cc4c(C(C)C)ccc(N5C[C@H](CS(C)(=O)=O)[C@H]5C)c4cn3)n2)C[C@]1(C)F (single isomer, unassigned) [Compound 185] |
| ≥ 7.82 | – | ≥ 8.00 | CC(C)c1ccc(N2C[C@H](CS(C)(=O)=O)[C@H]2C)c2cnc(Nc3ccnc(N4CC[C@](F)(CO)C4)n3)cc12 (single isomer, unassigned) [Compound 271, [(3S)-3-fluoro-1-[4-({8-[(2R,3S)-3-(methanesulfonylmethyl)-2-methylazetidin-1-yl]-5-(propan-2-yl)isoquinolin-3-yl}amino)pyrimidin-2-yl]pyrrolidin-3-yl]methanol or [(3R)-3-fluoro-1-[4-({8-[(2R,3S)-3-(methanesulfonylmethyl)-2-methylazetidin-1-yl]-5-(propan-2-yl)isoquinolin-3-yl}amino)pyrimidin-2-yl]pyrrolidin-3-yl]methanol] |
| ≥ 7.82 | ≥ 8.00 | – | CCS(=O)(=O)CC1CN(c2ccc(C(C)C)c3cc(Nc4ccnc(N5CC[C@@](C)(O)[C@@H](F)C5)n4)ncc23)C1 [Compound 276, (3S,4R)-1-{4-[(8-{3-[(ethanesulfonyl)methyl]azetidin-1-yl}-5-(propan-2-yl)isoquinolin-3-yl)amino]pyrimidin-2-yl}-3-fluoro-4-methylpiperidin-4-ol] |
| ≥ 7.82 | ≥ 8.00 | – | CC[C@@]1(F)CN(c2nccc(Nc3cc4c(C(C)C)ccc(N5C[C@H](CS(C)(=O)=O)[C@H]5C)c4cn3)n2)CC[C@@H]1O (single isomer, unassigned) [Compound 184, (3R,4S)-3-ethyl-3-fluoro-1-[4-({8-[(2R,3S)-3-(methanesulfonylmethyl)-2-methylazetidin-1-yl]-5-(propan-2-yl)isoquinolin-3-yl}amino)pyrimidin-2-yl]piperidin-4-ol or (3S,4R)-3-ethyl-3-fluoro-1-[4-({8-[(2R,3S)-3-(methanesulfonylmethyl)-2-methylazetidin-1-yl]-5-(propan-2-yl)isoquinolin-3-yl}amino)pyrimidin-2-yl]piperidin-4-ol] |
| ≥ 7.82 | ≥ 8.00 | – | C[C@@H]1[C@@H](CS(C)(=O)=O)CN1c1ccc(C(F)(F)F)c2cc(Nc3ccnc(N4CC[C@@H](O)[C@@](C)(F)C4)n3)ncc12 (single isomer, unassigned) [Compound 222] |
| ≥ 7.82 | ≥ 8.00 | – | CC(C)c1ccc(N2C[C@H](CS(C)(=O)=O)[C@H]2C)c2cnc(Nc3ccnc(N4CC[C@H](OCCN(C)C)[C@H](F)C4)n3)cc12 [Compound 253, N-{2-[(3R,4S)-4-[2-(dimethylamino)ethoxy]-3-fluoropiperidin-1-yl]pyrimidin-4-yl}-8-[(2R,3S)-3-(methanesulfonylmethyl)-2-methylazetidin-1-yl]-5-(propan-2-yl)isoquinolin-3-amine] |
| ≥ 7.82 | ≥ 8.00 | – | CCS(=O)(=O)C[C@H]1CN(c2ccc(C(C)C)c3cc(Nc4ccnc(N5CC[C@@](C)(O)[C@@H](F)C5)n4)ncc23)[C@@H]1C (single isomer, unassigned) [Compound 186] |
| ≥ 7.82 | ≥ 8.00 | – | COCCO[C@@H]1CCN(c2nccc(Nc3cc4c(C(C)C)ccc(N5C[C@H](CS(C)(=O)=O)[C@H]5C)c4cn3)n2)C[C@@H]1F (single isomer, unassigned) [Compound 245] |
| ≥ 7.82 | – | 7.70 to 8.00 | CC(C)c1ccc(N2CC(CS(C)(=O)=O)C2)c2cnc(Nc3ccnc(N4CCC5(OCCO5)[C@H](F)C4)n3)cc12 (single isomer, unassigned) [Compound 181, N-{2-[(6R)-6-fluoro-1,4-dioxa-8-azaspiro[4.5]decan-8-yl]pyrimidin-4-yl}-8-[3-(methanesulfonylmethyl)azetidin-1-yl]-5-(propan-2-yl)isoquinolin-3-amine or N-{2-[(6S)-6-fluoro-1,4-dioxa-8-azaspiro[4.5]decan-8-yl]pyrimidin-4-yl}-8-[3-(methanesulfonylmethyl)azetidin-1-yl]-5-(propan-2-yl)isoquinolin-3-amine] |
| ≥ 7.82 | 7.70 to 8.00 | – | CCS(=O)(=O)CC1CN(c2ccc(C(C)C)c3cc(Nc4ccnc(N5CC[C@](C)(O)[C@H](F)C5)n4)ncc23)C1 (single isomer, unassigned) [Compound 277] |
